According to ChEMBL document CHEMBL3046409, “Studies on radioprotective and antiviral activities of some bischalcone derivatives” (Med Chem Res, 2012):

What was measured:
[1] = test system: Buffalopox virus; assay: Antiviral activity against Buffalopox virus infected African green monkey Vero cells assessed as reduction of viral titer after 48 hr; format: functional
[2] = test system: Camelpox virus; assay: Antiviral activity against Camelpox virus infected African green monkey Vero cells assessed as reduction of viral titer after 48 hr; format: functional
[3] = Cytotoxicity against Chlorocebus aethiops (African green monkey) Vero cells assessed as maximum non-toxic concentration after 24 hr; format: cell-based; conditions: chlorocebus sabaeus, read-out: Activity

O=C1/C(=C/c2ccc(F)cc2)CC/C1=C\c1ccc(F)cc1
inhibition (INH) [1]: 73.69%
inhibition (INH) [2]: 54.29%
MNTC at 24 h [3]: 0.0833 µg/mL
